# The supplement of paper PMC6965134
# ± gives the standard deviation of the averaged measurements.
# Experiment: TIMS collisional cross section (CCS, N2) of the lipid ion; higher = larger ion cross section
# Conditions: ionization mode: positive, one isomer drawn
SMILES,TIMS collisional cross section (sample type: HeLa) [Å²],TIMS collisional cross section (sample type: plasma) [Å²],TIMS collisional cross section (sample type: Liver) [Å²]
CC/C=C\C/C=C\C/C=C\C/C=C\C/C=C\C/C=C\CCC(=O)OC[C@H](COP(=O)([O-])OCC[N+](C)(C)C)OC(=O)CC/C=C\C/C=C\C/C=C\C/C=C\C/C=C\C/C=C\CC [PC 22:6_22:6] (ion (formula + adduct): [C52H80NO8P+H] 1+),298.6,,
CCCCCCCCCCCCCCCCOC[C@H](COP(=O)([O-])OCC[N+](C)(C)C)OC(=O)CCCCCCCCCCCCC [PC O- 16:0@_14:0] (ion (formula + adduct): [C38H78NO7P+H] 1+),280.8,,
CCCCCCC/C=C\CCCCCCCC(=O)O[C@H](COCCCCCCCCCCCCCCCC)COP(=O)([O-])OCC[N+](C)(C)C [PC O- 16:0@_17:1] (ion (formula + adduct): [C41H82NO7P+H] 1+),287.7,,
CCCCCCCC/C=C\CCCCCCCC(=O)O[C@H](COCCCCCCCCCCCCCCCC)COP(=O)([O-])OCC[N+](C)(C)C [PC O- 16:0@_18:1] (ion (formula + adduct): [C42H84NO7P+H] 1+),290.7,,
CCCCC/C=C\C/C=C\CCCCCCCC(=O)O[C@H](COCCCCCCCCCCCCCCCC)COP(=O)([O-])OCC[N+](C)(C)C [PC O- 16:0@_18:2] (ion (formula + adduct): [C42H82NO7P+H] 1+),,287.3,
CCCCC/C=C/C/C=C/C/C=C/C/C=C/CCCC(=O)O[C@H](COCCCCCCCCCCCCCCCC)COP(=O)([O-])OCC[N+](C)(C)C [PC O- 16:0@_20:4] (ion (formula + adduct): [C44H82NO7P+H] 1+),290.4,,
CC/C=C\C/C=C\C/C=C\C/C=C\C/C=C\CCCC(=O)O[C@H](COCCCCCCCCCCCCCCCC)COP(=O)([O-])OCC[N+](C)(C)C [PC O- 16:0@_20:5] (ion (formula + adduct): [C44H80NO7P+H] 1+),287.7,,
CCCCC/C=C\C/C=C\C/C=C\C/C=C\CCCCCC(=O)O[C@H](COCCCCCCCCCCCCCCCC)COP(=O)([O-])OCC[N+](C)(C)C [PC O- 16:0@_22:4] (ion (formula + adduct): [C46H86NO7P+H] 1+),,296.3,
CC/C=C\C/C=C\C/C=C\C/C=C\C/C=C\CCCCCC(=O)O[C@H](COCCCCCCCCCCCCCCCC)COP(=O)([O-])OCC[N+](C)(C)C [PC O- 16:0@_22:5] (ion (formula + adduct): [C46H84NO7P+H] 1+),294.4,,
CC/C=C\C/C=C\C/C=C\C/C=C\CCCCCCC(=O)O[C@H](COCCCCCCCC/C=C\CCCCCC)COP(=O)([O-])OCC[N+](C)(C)C [PC O- 16:1@_20:4] (ion (formula + adduct): [C44H80NO7P+H] 1+),,287.2,
CCCCCCCCCCCCCCCCCCOC[C@H](COP(=O)([O-])OCC[N+](C)(C)C)OC(=O)CCCCCCCCCCCCCCC [PC O- 18:0@_16:0] (ion (formula + adduct): [C42H86NO7P+H] 1+),293.3,,
CCCCC/C=C\C/C=C\CCCCCCCC(=O)O[C@H](COCCCCCCCCCCCCCCCCCC)COP(=O)([O-])OCC[N+](C)(C)C [PC O- 18:0@_18:2] (ion (formula + adduct): [C44H86NO7P+H] 1+),,294.7,
CCCCC/C=C\C/C=C\C/C=C\C/C=C\CCCCCC(=O)O[C@H](COCCCCCCCCCCCCCCCCCC)COP(=O)([O-])OCC[N+](C)(C)C [PC O- 18:0@_22:4] (ion (formula + adduct): [C48H90NO7P+H] 1+),301.9,,
CCCCC/C=C\C/C=C\C/C=C\C/C=C\C/C=C\CCC(=O)O[C@H](COCCCCCCCCCCCCCCCCCC)COP(=O)([O-])OCC[N+](C)(C)C [PC O- 18:0@_22:5] (ion (formula + adduct): [C48H88NO7P+H] 1+),300.2,,
CCCCC/C=C\C/C=C\C/C=C\C/C=C\CCCC(=O)O[C@H](COCCCCCCCC/C=C\CCCCCCCC)COP(=O)([O-])OCC[N+](C)(C)C [PC O- 18:1@_20:4] (ion (formula + adduct): [C46H84NO7P+H] 1+),,294,
CC/C=C\C/C=C\C/C=C\C/C=C\C/C=C\C/C=C\CCC(=O)O[C@H](COCCCCCCCCCCCCCCCCCCCC)COP(=O)([O-])OCC[N+](C)(C)C [PC O- 20:0@_22:6] (ion (formula + adduct): [C50H90NO7P+H] 1+),305.7,304.9,
CC/C=C\C/C=C\C/C=C\C/C=C\CCCCCCC(=O)O[C@H](COCCCCCCCCCC/C=C\CCCCCCCC)COP(=O)([O-])OCC[N+](C)(C)C [PC O- 20:1@_20:4] (ion (formula + adduct): [C48H88NO7P+H] 1+),,,299.9
CCCCCC/C=C\CCCCCCCC(=O)O[C@H](CO/C=C\CCCCCCCCCCCCCC)COP(=O)([O-])OCC[N+](C)(C)C [PC P- 16:0@_16:1] (ion (formula + adduct): [C40H78NO7P+H] 1+),281.9,,
CCCCCCCC/C=C\CCCCCCCC(=O)O[C@H](CO/C=C\CCCCCCCCCCCCCC)COP(=O)([O-])OCC[N+](C)(C)C [PC P- 16:0@_18:1] (ion (formula + adduct): [C42H82NO7P+H] 1+),,287.7,
CC/C=C\C/C=C\C/C=C\C/C=C\C/C=C\C/C=C\CCC(=O)O[C@H](CO/C=C\CCCCCCCCCCCCCC)COP(=O)([O-])OCC[N+](C)(C)C [PC P- 16:0@_22:6] (ion (formula + adduct): [C46H80NO7P+H] 1+),291.3,,
CCCCCCCCCCCCCC/C=C\OC[C@H](COP(=O)([O-])OCC[N+](C)(C)C)OC(=O)CCCCCCCCCCCCCCC [PC P- 16:0_16:0] (ion (formula + adduct): [C40H80NO7P+H] 1+),284.4,284.4,
CCCCCC/C=C\CCCCCCCC(=O)O[C@H](CO/C=C\CCCCCCCCCCCCCCCC)COP(=O)([O-])OCC[N+](C)(C)C [PC P- 18:0@_16:1] (ion (formula + adduct): [C42H82NO7P+H] 1+),288.6,,
CCCCC/C=C\C/C=C\C/C=C\CCCCCCC(=O)O[C@H](CO/C=C\CCCCCCCCCCCCCCCC)COP(=O)([O-])OCC[N+](C)(C)C [PC P- 18:0@_20:3] (ion (formula + adduct): [C46H86NO7P+H] 1+),,296.1,
CCCCC/C=C\C/C=C\C/C=C\C/C=C\CCCCCC(=O)O[C@H](CO/C=C\CCCCCCCCCCCCCCCC)COP(=O)([O-])OCC[N+](C)(C)C [PC P- 18:0@_22:4] (ion (formula + adduct): [C48H88NO7P+H] 1+),,,300.4
CC/C=C\C/C=C\C/C=C\C/C=C\C/C=C\C/C=C\CCC(=O)O[C@H](CO/C=C\CCCCCCCCCCCCCCCC)COP(=O)([O-])OCC[N+](C)(C)C [PC P- 18:0@_22:6] (ion (formula + adduct): [C48H84NO7P+H] 1+),297.1 ± 0.71,,
CC/C=C\C/C=C\C/C=C\C/C=C\C/C=C\CCCC(=O)O[C@H](CO/C=C\CCCCCCCCCCCCCCCCCC)COP(=O)([O-])OCC[N+](C)(C)C [PC P- 20:0@_20:5] (ion (formula + adduct): [C48H86NO7P+H] 1+),299.9,,
